From the supplement of paper PMC10627819

Legend:
B. subtilis 168 [1] = test: fitness (endpoint OD595 vs no drug) (fraction); higher = more growth
Outline: (§1)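 Cultures at OD595 0.01 were dispensed into 384-well plates in TSB, LB Lennox or CY and incubated at 37 °C. Every 30 min for 14 h, OD595 was read and corrected by the first reading. Fitness is the optical density at entry into stationary phase relative to the robust mean of no-drug control wells, capped at 1.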

S. aureus DSM 20231 [2] = test: as above
Outline: as §1

S. aureus Newman [3] = test: as above
Outline: as §1

S. pneumoniae D39V [4] = test: as above
Outline: as §1

B. subtilis 168 [5] = test: Bliss interaction score (quartile over a dose matrix) (fitness difference); higher = more antagonism (negative = synergy)
Outline: (§2)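 Values were capped at 1 after dividing OD595 at stationary-phase entry by the plate's robust no-drug mean. This ratio is fitness, and single-drug fitness was inferred from the combination data. The Bliss score is observed minus product-expected fitness, given as quartiles over technical, biological and donor/recipient replicates.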

S. aureus DSM 20231 [6] = test: as above
Outline: as §2

S. aureus Newman [7] = test: as above
Outline: as §2

S. pneumoniae D39V [8] = test: as above
Outline: as §2

[9] = first compound 0.625 µg/mL, partner 2 µg/mL
[10] = first compound 0.625 µg/mL, partner 4 µg/mL
[11] = first compound 0.625 µg/mL, partner 8 µg/mL
[12] = first compound 1.25 µg/mL, partner 2 µg/mL
[13] = first compound 1.25 µg/mL, partner 4 µg/mL
[14] = first compound 1.25 µg/mL, partner 8 µg/mL
[15] = first compound 2.5 µg/mL, partner 2 µg/mL
[16] = first compound 2.5 µg/mL, partner 4 µg/mL
[17] = first compound 2.5 µg/mL, partner 8 µg/mL
[18] = first compound 0.625 µg/mL, partner 16 µg/mL
[19] = first compound 0.625 µg/mL, partner 32 µg/mL, one replicate
[20] = first compound 0.625 µg/mL, partner 64 µg/mL, one replicate
[21] = first compound 1.25 µg/mL, partner 16 µg/mL
[22] = first compound 1.25 µg/mL, partner 32 µg/mL, one replicate
[23] = first compound 1.25 µg/mL, partner 64 µg/mL, one replicate
[24] = first compound 2.5 µg/mL, partner 16 µg/mL
[25] = first compound 2.5 µg/mL, partner 32 µg/mL, one replicate
[26] = first compound 2.5 µg/mL, partner 64 µg/mL, one replicate
[27] = first compound 0.625 µg/mL, partner 0.0075 µg/mL
[28] = first compound 0.625 µg/mL, partner 0.015 µg/mL
[29] = first compound 1.25 µg/mL, partner 0.0075 µg/mL
[30] = first compound 1.25 µg/mL, partner 0.015 µg/mL
[31] = first compound 2.5 µg/mL, partner 0.0075 µg/mL
[32] = first compound 2.5 µg/mL, partner 0.015 µg/mL
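Wherever Bliss interaction score (quartile over a dose matrix) is given: first quartile when negative (synergy) and third quartile when positive (antagonism).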

Structure (SMILES): COc1cccc2c1C(=O)c1c(O)c3c(c(O)c1C2=O)C[C@@](O)(C(=O)CO)C[C@@H]3O[C@H]1C[C@H](N)[C@H](O)[C@H](C)O1 [Doxorubicin] + CN[C@@H]1[C@H](O)[C@H](NC)[C@H]2O[C@@]3(O)C(=O)C[C@@H](C)O[C@H]3O[C@@H]2[C@H]1O [Spectinomycin]
- fitness (B. subtilis 168 [1]; [9]): 0.919
- fitness (B. subtilis 168 [1]; [10]): 0.965
- fitness (B. subtilis 168 [1]; [11]): 0.817
- fitness (B. subtilis 168 [1]; [12]): 0.905
- fitness (B. subtilis 168 [1]; [13]): 0.954
- fitness (B. subtilis 168 [1]; [14]): 0.88
- fitness (B. subtilis 168 [1]; [15]): 0.62
- fitness (B. subtilis 168 [1]; [16]): 0.594
- fitness (B. subtilis 168 [1]; [17]): 0.615
- fitness (S. aureus DSM 20231 [2]; [10]): 0.901
- fitness (S. aureus DSM 20231 [2]; [11]): 0.882
- fitness (S. aureus DSM 20231 [2]; [18]): 0.789
- fitness (S. aureus DSM 20231 [2]; [19]): 0.768
- fitness (S. aureus DSM 20231 [2]; [20]): 0.0549
- fitness (S. aureus DSM 20231 [2]; [13]): 0.846
- fitness (S. aureus DSM 20231 [2]; [14]): 0.89
- fitness (S. aureus DSM 20231 [2]; [21]): 0.824
- fitness (S. aureus DSM 20231 [2]; [22]): 0.732
- fitness (S. aureus DSM 20231 [2]; [23]): 0.0594
- fitness (S. aureus DSM 20231 [2]; [16]): 0.808
- fitness (S. aureus DSM 20231 [2]; [17]): 0.84
- fitness (S. aureus DSM 20231 [2]; [24]): 0.736
- fitness (S. aureus DSM 20231 [2]; [25]): 0.624
- fitness (S. aureus DSM 20231 [2]; [26]): 0.0266
- fitness (S. aureus Newman [3]; [10]): 0.796
- fitness (S. aureus Newman [3]; [11]): 0.797
- fitness (S. aureus Newman [3]; [18]): 0.713
- fitness (S. aureus Newman [3]; [19]): 0.549
- fitness (S. aureus Newman [3]; [20]): 0.0592
- fitness (S. aureus Newman [3]; [13]): 0.754
- fitness (S. aureus Newman [3]; [14]): 0.762
- fitness (S. aureus Newman [3]; [21]): 0.623
- fitness (S. aureus Newman [3]; [22]): 0.394
- fitness (S. aureus Newman [3]; [23]): 0.0432
- fitness (S. aureus Newman [3]; [16]): 0.71
- fitness (S. aureus Newman [3]; [17]): 0.681
- fitness (S. aureus Newman [3]; [24]): 0.577
- fitness (S. aureus Newman [3]; [25]): 0.215
- fitness (S. aureus Newman [3]; [26]): 0.0224
- fitness (S. pneumoniae D39V [4]; first compound 0.25 µg/mL, partner 4 µg/mL): 0.908
- fitness (S. pneumoniae D39V [4]; first compound 0.25 µg/mL, partner 8 µg/mL): 0.827
- fitness (S. pneumoniae D39V [4]; first compound 0.25 µg/mL, partner 16 µg/mL): 0.686
- fitness (S. pneumoniae D39V [4]; first compound 0.5 µg/mL, partner 4 µg/mL): 0.938
- fitness (S. pneumoniae D39V [4]; first compound 0.5 µg/mL, partner 8 µg/mL): 0.862
- fitness (S. pneumoniae D39V [4]; first compound 0.5 µg/mL, partner 16 µg/mL): 0.661
- fitness (S. pneumoniae D39V [4]; first compound 1 µg/mL, partner 4 µg/mL): 0.921
- fitness (S. pneumoniae D39V [4]; first compound 1 µg/mL, partner 8 µg/mL): 0.838
- fitness (S. pneumoniae D39V [4]; first compound 1 µg/mL, partner 16 µg/mL): 0.632
- Bliss interaction score (B. subtilis 168 [5]): 0.0605
- Bliss interaction score (S. aureus DSM 20231 [6]): -0.0571
- Bliss interaction score (S. aureus Newman [7]): -0.0787
- Bliss interaction score (S. pneumoniae D39V [8]): 0.0399

Structure (SMILES): COc1cccc2c1C(=O)c1c(O)c3c(c(O)c1C2=O)C[C@@](O)(C(=O)CO)C[C@@H]3O[C@H]1C[C@H](N)[C@H](O)[C@H](C)O1 [Doxorubicin] + COc1c(N2C[C@@H]3CCCN[C@@H]3C2)c(F)cc2c(=O)c(C(=O)O)cn(C3CC3)c12 [Moxifloxacin]
- fitness (B. subtilis 168 [1]; first compound 0.625 µg/mL, partner 0.0312 µg/mL): 0.0436
- fitness (B. subtilis 168 [1]; first compound 0.625 µg/mL, partner 0.0625 µg/mL): 0.0396
- fitness (B. subtilis 168 [1]; first compound 0.625 µg/mL, partner 0.125 µg/mL): 0.0249
- fitness (B. subtilis 168 [1]; [9]): 0.0338
- fitness (B. subtilis 168 [1]; [10]): 0.0299
- fitness (B. subtilis 168 [1]; [11]): 0.0347
- fitness (B. subtilis 168 [1]; first compound 1.25 µg/mL, partner 0.0312 µg/mL): 0.0321
- fitness (B. subtilis 168 [1]; first compound 1.25 µg/mL, partner 0.0625 µg/mL): 0.0329
- fitness (B. subtilis 168 [1]; first compound 1.25 µg/mL, partner 0.125 µg/mL): 0.0462
- fitness (B. subtilis 168 [1]; [12]): 0.0341
- fitness (B. subtilis 168 [1]; [13]): 0.0351
- fitness (B. subtilis 168 [1]; [14]): 0.0318
- fitness (B. subtilis 168 [1]; first compound 2.5 µg/mL, partner 0.0312 µg/mL): 0.0239
- fitness (B. subtilis 168 [1]; first compound 2.5 µg/mL, partner 0.0625 µg/mL): 0.0327
- fitness (B. subtilis 168 [1]; first compound 2.5 µg/mL, partner 0.125 µg/mL): 0.026
- fitness (B. subtilis 168 [1]; [15]): 0.0223
- fitness (B. subtilis 168 [1]; [16]): 0.0369
- fitness (B. subtilis 168 [1]; [17]): 0.0314
- fitness (S. aureus DSM 20231 [2]; [27]): 0.751
- fitness (S. aureus DSM 20231 [2]; [28]): 0.759
- fitness (S. aureus DSM 20231 [2]; first compound 0.625 µg/mL, partner 0.03 µg/mL): 0.623
- fitness (S. aureus DSM 20231 [2]; first compound 0.625 µg/mL, partner 0.06 µg/mL, one replicate): 0.664
- fitness (S. aureus DSM 20231 [2]; first compound 0.625 µg/mL, partner 0.12 µg/mL, one replicate): 0.575
- fitness (S. aureus DSM 20231 [2]; [29]): 0.78
- fitness (S. aureus DSM 20231 [2]; [30]): 0.764
- fitness (S. aureus DSM 20231 [2]; first compound 1.25 µg/mL, partner 0.03 µg/mL): 0.631
- fitness (S. aureus DSM 20231 [2]; first compound 1.25 µg/mL, partner 0.06 µg/mL, one replicate): 0.655
- fitness (S. aureus DSM 20231 [2]; first compound 1.25 µg/mL, partner 0.12 µg/mL, one replicate): 0.531
- fitness (S. aureus DSM 20231 [2]; [31]): 0.735
- fitness (S. aureus DSM 20231 [2]; [32]): 0.706
- fitness (S. aureus DSM 20231 [2]; first compound 2.5 µg/mL, partner 0.03 µg/mL): 0.618
- fitness (S. aureus DSM 20231 [2]; first compound 2.5 µg/mL, partner 0.06 µg/mL, one replicate): 0.638
- fitness (S. aureus DSM 20231 [2]; first compound 2.5 µg/mL, partner 0.12 µg/mL, one replicate): 0.537
- fitness (S. aureus Newman [3]; [27]): 0.756
- fitness (S. aureus Newman [3]; [28]): 0.66
- fitness (S. aureus Newman [3]; [29]): 0.722
- fitness (S. aureus Newman [3]; [30]): 0.667
- fitness (S. aureus Newman [3]; [31]): 0.659
- fitness (S. aureus Newman [3]; [32]): 0.611
- fitness (S. pneumoniae D39V [4]; first compound 0.25 µg/mL, partner 0.005 µg/mL): 0.916
- fitness (S. pneumoniae D39V [4]; first compound 0.25 µg/mL, partner 0.01 µg/mL): 0.955
- fitness (S. pneumoniae D39V [4]; first compound 0.25 µg/mL, partner 0.02 µg/mL): 0.894
- fitness (S. pneumoniae D39V [4]; first compound 0.25 µg/mL, partner 0.0312 µg/mL): 0.0684
- fitness (S. pneumoniae D39V [4]; first compound 0.25 µg/mL, partner 0.0625 µg/mL): 0.0549
- fitness (S. pneumoniae D39V [4]; first compound 0.25 µg/mL, partner 0.125 µg/mL): 0.0583
- fitness (S. pneumoniae D39V [4]; first compound 0.5 µg/mL, partner 0.005 µg/mL): 0.919
- fitness (S. pneumoniae D39V [4]; first compound 0.5 µg/mL, partner 0.01 µg/mL): 0.911
- fitness (S. pneumoniae D39V [4]; first compound 0.5 µg/mL, partner 0.02 µg/mL): 0.822
- fitness (S. pneumoniae D39V [4]; first compound 0.5 µg/mL, partner 0.0312 µg/mL): 0.0433
- fitness (S. pneumoniae D39V [4]; first compound 0.5 µg/mL, partner 0.0625 µg/mL): 0.0614
- fitness (S. pneumoniae D39V [4]; first compound 0.5 µg/mL, partner 0.125 µg/mL): 0.0523
- fitness (S. pneumoniae D39V [4]; first compound 1 µg/mL, partner 0.005 µg/mL): 0.812
- fitness (S. pneumoniae D39V [4]; first compound 1 µg/mL, partner 0.01 µg/mL): 0.857
- fitness (S. pneumoniae D39V [4]; first compound 1 µg/mL, partner 0.02 µg/mL): 0.779
- fitness (S. pneumoniae D39V [4]; first compound 1 µg/mL, partner 0.0312 µg/mL): 0.0394
- fitness (S. pneumoniae D39V [4]; first compound 1 µg/mL, partner 0.0625 µg/mL): 0.0753
- fitness (S. pneumoniae D39V [4]; first compound 1 µg/mL, partner 0.125 µg/mL): 0.0416
- Bliss interaction score (B. subtilis 168 [5]): -0.0247
- Bliss interaction score (S. aureus DSM 20231 [6]): 0.0448
- Bliss interaction score (S. aureus Newman [7]): 0.177
- Bliss interaction score (S. pneumoniae D39V [8]): -0.0668
